Series [1] is described as follows: Stability under denaturing conditions in incubators, determined by DSC over 2 months. The format is physicochemical. The procedure:
Samples of the compounds of Examples 1, 2 and 3 are placed in incubators under denaturing conditions and the stability is determined by DSC measurements over 2 months.
(In general: Differential scanning calorimetry records heat flow against a reference as temperature is scanned.)

Series [2] can be described thus: Solubility by HPLC (external standard method) compared with agomelatine of form II. The format is physicochemical. The procedure: Using an external standard method, the compounds of Examples 1, 2 and 3 are tested by HPLC and compared with agomelatine of form II. The results are presented in Table 5 in the form of % increase in solubility relative to the solubility of agomelatine of form II: […]

Regarding `COc1ccc2cccc(CCNC(C)=O)c2c1.O=S(=O)(O)c1cccc2c(S(=O)(=O)O)cccc12` [Compound of Example 1, Agomelatine/1,5-Naphthalenedisulphonic Acid (2/1) Complex], in series [1] (25° C., 60% RH, open bottle), the Stability entry was “stable”. Further, the Stability entry in series [1] (50° C., closed bottle) is recorded as “stable”. The Stability entry in series [1] (70° C., closed bottle) is “stable”. In series [2], the “Solubility (increase versus agomelatine form II) in 0.1N HCl” value is “+25%”, the “Solubility (increase versus agomelatine form II) in a buffer pH 6.8” value is listed as “+48%” and the “Solubility (increase versus agomelatine form II) in water” value is on record as “+18%”.

For `COc1ccc2cccc(CCNC(C)=O)c2c1.O.O=S(=O)(O)c1cccc2c(S(=O)(=O)O)cccc12` [Compound of Example 2, Agomelatine/1,5-Naphthalenedisulphonic Acid (2/1) Monohydrate Complex], in series [1] (25° C., 60% RH, open bottle), the Stability entry is listed as “stable”. For the same compound, in series [1] (50° C., closed bottle), the Stability entry is “stable”. Also, the Stability result in series [1] (70° C., closed bottle) is listed as “stable”. Moreover, in series [2], the “Solubility (increase versus agomelatine form II) in 0.1N HCl” value is on record as “+75%”, the “Solubility (increase versus agomelatine form II) in a buffer pH 6.8” value is “+57%” and the “Solubility (increase versus agomelatine form II) in water” value is reported as “+12%”.

For `COc1ccc2cccc(CCNC(C)=O)c2c1.COc1ccc2cccc(CCNC(C)=O)c2c1.O=S(=O)(O)c1ccccc1` [Compound of Example 3, Agomelatine/Benzenesulphonic Acid (2/1) Complex], the Stability result in series [1] (25° C., 60% RH, open bottle) is “stable”. Also, the Stability result in series [1] (50° C., closed bottle) is recorded as “stable”. Moreover, the Stability result in series [1] (70° C., closed bottle) was “stable”. Moreover, in series [2], the “Solubility (increase versus agomelatine form II) in 0.1N HCl” value is “+32%”, the “Solubility (increase versus agomelatine form II) in a buffer pH 6.8” value is listed as “+46%” and the “Solubility (increase versus agomelatine form II) in water” value is “+22%”.

For the origin of these results see US9573891B2, “Complexes of agomelatine and sulphonic acids, a process for their preparation and pharmaceutical compositions containing them” (LES LABORATOIRES SERVIER, priority 2013, dated 2017).
